From the RepoRT retention time repository

experiment: HILIC, Waters Atlantis Premier BEH Z-HILIC, 100 × 2.1 mm, 1.7 µm, 40 °C, 0.15 mL/min, estimated dead time 1.5 min; A: water + 20 mM ammonium carbonate + 5 µM medronic acid; B: 10% water + 90% acetonitrile + 2 mM ammonium carbonate + 0.5 µM medronic acid; gradient (min/%B) 0/95 18/55 18.1/20 21.5/20 22/95 23.5/95 25.5/95; conditions: stereoisomer not certain

LC retention time [min] | SMILES
12.3 | O=P(O)(O)OCC1OC(O)C(O)C(O)C1O (configuration not stated) [Glucose-6-phosphate]
9.67 | NC(CCC(=O)O)C(=O)O (configuration not stated) [Glutamic acid]
4.59 | O=C1CC(C(=O)O)NC(=O)N1 (configuration not stated) [dihydroorotic acid]
19.5 | NCCCCC(N)C(=O)O (configuration not stated) [Lysine]
9.51 | O=C(O)CCC(=O)O [Succinic Acid]
13.7 | NC(=O)C1=CN(C2OC(COP(=O)(O)OP(=O)(O)OCC3OC(n4cnc5c(N)ncnc54)C(OP(=O)(O)O)C3O)C(O)C2O)C=CC1 (configuration not stated) [NADPH]
13.3 | C=C(OP(=O)(O)O)C(=O)O [PEP]
9.85 | C[N+](C)(C)CC(O)CC(=O)[O-] (configuration not stated) [Carnitine]
12.4 | O=C(O)C(CO)OP(=O)(O)O (configuration not stated) [Phosphoglyceric acid A]
11.3 | O=C(CO)C(O)C(O)C(O)COP(=O)(O)O (configuration not stated) [Fructose 6-phosphate]
4.5 | O=C(O)CCCCC1SCC2NC(=O)NC21 (configuration not stated) [Biotin]
15.7 | Nc1nc2c(ncn2C2OC(COP(=O)(O)OP(=O)(O)OP(=O)(O)O)C(O)C2O)c(=O)[nH]1 (configuration not stated) [GTP]
6.52 | CCC(=O)OC(CC(=O)[O-])C[N+](C)(C)C (configuration not stated) [carnitine-C3]
13.5 | O=C(O)CC(C(=O)O)C(O)C(=O)O (configuration not stated) [Isocitric acid]
10.1 | CC(=O)SCCNC(=O)CCNC(=O)C(O)C(C)(C)COP(=O)(O)OP(=O)(O)OCC1OC(n2cnc3c(N)ncnc32)C(O)C1OP(=O)(O)O (configuration not stated) [Acetyl-CoA]
11.8 | CC(C)(COP(=O)(O)OP(=O)(O)OCC1OC(n2cnc3c(N)ncnc32)C(O)C1OP(=O)(O)O)C(O)C(=O)NCCC(=O)NCCS (configuration not stated) [CoenzymeA]
9.78 | CC(=O)NC1C(OP(=O)(O)OP(=O)(O)OCC2OC(n3ccc(=O)[nH]c3=O)C(O)C2O)OC(CO)C(O)C1O (configuration not stated) [UDP-GlcNAc]
19.3 | NC(N)=NCCCC(N)C(=O)O (configuration not stated) [Arginine]
10.2 | O=C(CO)COP(=O)(O)O [Triose phosphate]

LC retention time [min] | SMILES
7.24 | Cc1cc2nc3c(=O)[nH]c(=O)nc-3n(CC(O)C(O)C(O)COP(=O)(O)OP(=O)(O)OCC3OC(n4cnc5c(N)ncnc54)C(O)C3O)c2cc1C (configuration not stated) [FAD]
15.5 | O=P(O)(O)OCC1OC(O)(COP(=O)(O)O)C(O)C1O (configuration not stated) [Fructose-1,6-bisphosphate]
8.94 | O=C(O)CCC(=O)C(=O)O [2-Oxoglutaric acid]
7.63 | OCC1OC(O)C(O)C(O)C1O (configuration not stated) [Hexose]
10.2 | NC(=O)c1ccc[n+](C2OC(COP(=O)(O)OP(=O)(O)OCC3OC(n4cnc5c(N)ncnc54)C(O)C3O)C(O)C2O)c1 (configuration not stated) [NAD]
10.3 | NC(=O)CCC(N)C(=O)O (configuration not stated) [Glutamine]
9.45 | O=C(O)CCC(O)C(=O)O (configuration not stated) [2-hydroxy glutaric acid]
9.36 | Nc1ncnc2c1ncn2C1OC(COP(=O)(O)O)C(O)C1O (configuration not stated) [AMP]
13.8 | O=C(O)CC(O)(CC(=O)O)C(=O)O [Citric acid]
3.43 | CC(O)C(=O)O (configuration not stated) [Lactic Acid]
10.2 | O=P(O)(O)OCC(O)CO (configuration not stated) [Glycerol-3-phosphate]
4.11 | Nc1ncnc2c1ncn2C1OC(CO)C(O)C1O (configuration not stated) [Adenosine]
13.2 | NC(=O)c1ccc[n+](C2OC(COP(=O)(O)OP(=O)(O)OCC3OC(n4cnc5c(N)ncnc54)C(OP(=O)(O)O)C3O)C(O)C2O)c1 (configuration not stated) [NADP]
11.3 | Nc1ncnc2c1ncn2C1OC(COP(=O)(O)OP(=O)(O)O)C(O)C1O (configuration not stated) [ADP]
6.42 | CCC(C)C(N)C(=O)O (configuration not stated) [Isoleucine]
6.03 | CC(C)CC(N)C(=O)O (configuration not stated) [Leucine]
8.54 | NC(=O)C1=CN(C2OC(COP(=O)(O)OP(=O)(O)OCC3OC(n4cnc5c(N)ncnc54)C(O)C3O)C(O)C2O)C=CC1 (configuration not stated) [NADH]
13.2 | Nc1ncnc2c1ncn2C1OC(COP(=O)(O)OP(=O)(O)OP(=O)(O)O)C(O)C1O (configuration not stated) [ATP]
